# According to patent US10241113B2, “CD28 expression during lenalidomide immune modulation” (H. LEE MOFFITT CANCER CENTER AND RESEARCH INSTITUTE, INC., priority 2012, dated 2019):
# Experiments:
# [1] = species comparison; cited from earlier work
# CD28^+ T-cells = experiment: IL-2 ELISA after CD28 siRNA knockdown; assay type: cell-based, human; details: average
# Procedure: (§1) For siRNA knockdown (KD), T-cells were transfected with siCD28 or control siRNA (Santa Cruz Biotechnology, Inc, Santa Cruz, Calif. USA) using Amaxa Nucleofection technology (Lonza, Basel, Switzerland). 10×10^6 purified T-cells were mixed with either control or CD28 siRNA in 100 μl Human T-cell nucleofection solution, nucleofected, and then placed in Lymphocye Media (Lonza Basel, Switzerland). Cells were rested 24 hours before being stimulated with either plate bound anti-CD3, or anti-CD3^+CD28, antibodies in the presence or absence of LEN. CD28 surface expression was measured via flow cytometry at 48 and 72 hours after stimulation, at the same time supernatant was collected for ELISA analysis. Supernatant from stimulation experiments was frozen at −80° C. for analysis via Human IL-2 ELISA kit (eBioscience, San Diego, Calif. USA).
# CD28 [2] = experiment: Western blot for total CD28 protein expression; assay type: cell-based, human; details: anti-CD3 activation for 1, 2, 4, 8, 12, and 48 hours
# [3] = system: CD8^+CD28^+ and CD8^+CD28^− T-cells; experiment: BrdU proliferation of sorted CD8^+CD28^+ and CD8^+CD28^− T-cells; assay type: cell-based, human; details: 3 days, 10 μM LEN
# Procedure: Proliferation was determined after in vitro activation by bromodeoxyuridine (BrdU) incorporation (BrdU flow kit, BD Biosciences, San Diego, Calif. USA). […] of BrdU was added during the last 45 min of T-cell stimulation. BrdU pulsed T-cells were harvested and stained with anti-CD4-PE and anti-CD8-PE-Cy-5 (BD Pharmingen, San Jose, Calif. USA). The cells were then fixed and permeabilized with BD Cytofix/Cytoperm buffer and incubated with DNase for 1 hour at 37° C. Cells were stained with anti-BrdU-FITC antibody before flow cytometry analysis on an LSRII flow cytometer (BD Biosciences, San Jose, Calif. USA). The percentage of BrdU positive cells from each population was analyzed using Flow-Jo Software (TreeStar Inc, Ashland, Oreg. USA.).
# (§2) T-cells were purified from healthy donor buffy coats as previously described, and were stained with 4′,6-diamidino-2-phenylindole (DAPI) for viability, anti-CD8-APC-Cy7, CD4-PerCP-Cy5.5, and CD28-FITC antibodies (BD Pharmingen, San Jose, Calif.). Cells were then sorted into CD8^+CD28^+, CD8^+CD28^− populations via FACS Aria Cell Sorter (BD Pharmingen, San Jose, Calif.).
# CD28 [4] = experiment: CD28 internalization and re-expression by flow cytometry after co-stimulation; assay type: cell-based, human
# Procedure: as §1
# CD28 [5] = experiment: CD28 surface expression by flow cytometry after anti-CD3 stimulation; assay type: cell-based, human; details: anti-CD3 alone, 72 hours
# Procedure: Stimulation followed by measurement of CD28 surface expression was performed using anti-CD3 (10 μg/ml) alone or anti-CD3 (10 μg/ml) plus anti-CD28 (10 μg/ml) coupled 4.5 micron polystyrene polybeads (Polysciences, Inc, Warrington, Pa. USA). 1×10^5 beads were added to 2×10^5 cells in u-bottom 96-well plates, as previously described (Viola A, et al. Science 1999 283(5402):680-2). Cells were collected at 72 hours and 5 days, and CD28 surface expression was measured via flow cytometry on LSRII flow cytometer (BD Biosciences, San Jose, Calif. USA).
# purified human T-cells [6] = experiment: IL-2 production by ELISA in stimulated T-cells; assay type: cell-based
# From the text: (§3) Peripheral blood from buffy coats of healthy donors was obtained from the Southwest Florida Blood Services, St. Petersburg, Fla., for use as controls and for the purification of T-cells. T-cells were isolated from the buffy coats using RosetteSep® Human CD3^+ T-cell Enrichment Cocktail (StemCell Technologies, Vancouver, BC Canada) according to the manufacturer's protocol. B57BL6 mice were maintained at an animal facility in accordance with the University of South Florida Committee on Animal Care. All mice were adult age 8-12 weeks, obtained from The Jackson Laboratory, and maintained in a pathogen-free environment at Moffitt Cancer Center. Mouse-specific antibodies for T-cell activation were purchased from eBioscience (San Diego, Calif.) and human-specific antibodies were purchased from BD Biosciences (San Jose, Calif. USA). To activate the T-cell receptor (TCR), T-cells were stimulated with plate-bound anti-CD3 antibody (1 μg/ml or indicated concentration) coated onto flat-bottomed polystyrene tissue culture plates overnight at 4° C. Purified T-cells (1×10^6/ml) were added to the coated 96-well plates in a 200 μl volume for 48 hours at 37° C. In some instances, 1.0 μg/ml anti-CD28 was added for co-stimulation.
# (§4) Lenalidomide (Revlimid®) was provided by Celgene Corporation (Warren, N.J.). […] An equal volume of DMSO was used as a vehicle control.
# as §1, with “Supernatant from stimulation experiments was frozen at −80° C. for analysis via Human IL-2 ELISA kit (eBioscience, San Diego, Calif. USA).” left out
# MDS patients = experiment: Hematologic response of MDS patients versus pre-treatment CD28 expression; assay type: in vivo, human; details: 10 mg 21 of 28 days, 16 weeks, 7 NR and 4 R
# Procedure: MDS patients (n=100) were consented at H. Lee Moffitt Cancer Center in Tampa, Fla. to participate in a peripheral blood collection protocol approved by the University of South Florida Institutional Review Board from 2004-2009. All patients signed University of South Florida Institutional Review Board approved informed consents for the collection of 40 ml of peripheral blood in heparin tubes. Samples were obtained from each patient at various times from 2004-2009 for immune monitoring studies and all cells were frozen in liquid nitrogen. Twenty-one of these patients had samples that were collected within 4 weeks prior to LEN treatment. LEN was administered at a dose of 10 mg for 21 out of a 28-day cycle for four cycles. All patients were evaluated for hematologic response after 16 weeks according to 2006 International Working Group Criteria (IWG). […]
# Naïve and memory CD4 and CD8 T-cell subtypes in MDS patients and healthy donors were detected after surface staining with anti-CD3-PE-Cy7, anti-CD8-PerCP-Cy5.5, anti-CD45RA-FITC, anti-CD27-APC, anti-CD28-PE, and DAPI (all from BD Biosciences, San Jose, Calif. USA). […] Samples were run on an LSRII flow cytometer (BD Pharmingen) and populations were analyzed by FlowJo Software (Tree Star Inc., Ashland, Oreg. USA).
# purified human T-cells [7] = experiment: T-cell proliferation by BrdU incorporation, anti-CD3 stimulated; assay type: cell-based; details: increasing anti-CD3, 10 μM LEN
# From the text: as §3, with “Purified T-cells (1×10^6/ml) were added to the coated 96-well plates in a 200 μl volume for 48 hours at 37° C. In some instances, 1.0 μg/ml anti-CD28 was added for co-stimulation.” left out
# Proliferation was determined after in vitro activation by bromodeoxyuridine (BrdU) incorporation (BrdU flow kit, BD Biosciences, San Diego, Calif. USA). […] The percentage of BrdU positive cells from each population was analyzed using Flow-Jo Software (TreeStar Inc, Ashland, Oreg. USA.).
# CD8^+CD28^− T-cells = experiment: IL-2 ELISA of sorted CD8^+CD28^− T-cells; assay type: cell-based, human; details: anti-CD3 stimulation, 3 days, 10 μM LEN
# From the text: as §2, §1
# CD28 [8] = experiment: CD28 mRNA expression by RT-qPCR; assay type: cell-based, human; details: anti-CD3 stimulation, 18 or 24 hours
# Procedure: (§5) Total RNA was extracted from purified T-cells using the RNeasy Mini Kit (Qiagen, Chatsworth, Calif. USA). […] Relative target gene expression was measured by qRT-PCR using 18S rRNA expression as a reference gene. Expression levels of target mRNA and 18S rRNA were evaluated with Taqman Probes obtained from Applied Biosystems (Carlsbad, Calif.). All samples for both target genes (IL-2 or CD28) and 18S rRNA were measured in triplicate. Relative mRNA expression level for each sample was calculated using the ΔΔCt method (Pfaffl M W. Nucleic Acids Res 2001 May 1; 29(9):e45).
# murine T-cells = experiment: IL-2 production by ELISA in murine T-cells; assay type: cell-based, B57BL6 mice
# From the text: as §3, §4
# IL-2 gene = experiment: IL-2 mRNA expression by RT-qPCR; assay type: cell-based, human; details: anti-CD3 alone without anti-CD28, 18 hours
# From the text: as §3, with “To activate the T-cell receptor (TCR), T-cells were stimulated with plate-bound anti-CD3 antibody (1 μg/ml or indicated concentration) coated onto flat-bottomed polystyrene tissue culture plates overnight at 4° C. Purified T-cells (1×10^6/ml) were added to the coated 96-well plates in a 200 μl volume for 48 hours at 37° C. In some instances, 1.0 μg/ml anti-CD28 was added for co-stimulation.” left out
# as §5
# [9] = Storage of DMSO stock solutions; assay type: physicochemical; details: −20° C.
# From the text: as §4
# [10] = system: pCREB binding to the IL-2 promoter; experiment: Chromatin immunoprecipitation of pCREB at the IL-2 promoter; assay type: cell-based, human; details: anti-CD3 alone, 18 hours, 10 μM LEN
# Procedure: Cells were isolated, fixed, lysed, and sonicated before chromatin-immunoprecipitation, as previously described (Smith M A, et al. J Biol Chem 2011 Mar. 11; 286(10):7893-904). Briefly, after stimulation and drug treatment, primary T-cells were treated with 1% formaldehyde for 10 min for cross-linking, followed by cell and nuclear lysis (50 mM Tris, pH 8.1, 10 mM EDTA, 1% SDS, 0.5 mM PMSF) and shearing. Chromatin was immunoprecipitated using 5 μg anti-phospho-CREB antibody (Millipore, Temecula, Calif. USA) and protein A/G beads (Santa Cruz Biotechnology Inc., Santa Cruz, Calif. USA). Immunoprecipitated chromatin was collected and washed sequentially with TSE buffer (20 mM Tris, pH 8.1, 50 mM NaCl, 2 mM EDTA, 0.1% SDS, 1.0% Triton X-100) and LiCl buffer (100 mM Tris, pH 8.1, 50 mM LiCl, 1% Nonidet P-40, 1% sodium deoxycholic acid, 1 mM EDTA). DNA was then eluted from the beads with 50 mM NaHCO3 containing 1% SDS and cross-linking reversed at 65° C. overnight followed by proteinase K treatment. DNA was then purified via QIAquick PCR purification kit (Qiagen, Germantown, Md. USA). For each sample, 4 μl DNA was amplified and measured using Sybr Green (Bio-Rad, Inc., Hercules, Calif. USA). Primers used to amplify the pCREB binding site-180 upstream of the transcription start site were: forward: 5′-[…]-3′ (SEQ ID NO:1) and reverse: 5′-[…]-3′ (SEQ ID NO:2).
smiles,measurement,setting,value
O=C1CCC(N2C(=O)c3ccccc3C2=O)C(=O)N1 (stereo not drawn) [Thalidomide],teratogenic activity,[1],"teratogenic activity only in humans, rabbits, chickens and zebrafish, but not in rodents"
"Nc1cccc2c1CN(C1CCC(=O)NC1=O)C2=O (stereo not drawn) [LEN, Lenalidomide]","LEN-induced IL-2 release, fold increase",CD28^+ T-cells; control siRNA,7.5 fold
same,"LEN-induced IL-2 release, fold increase",CD28^+ T-cells; siRNA-CD28 knockdown,4.9 fold
same,total protein expression of CD28,CD28 [2],did not significantly increase
same,proliferation of CD8^+CD28^+ T-cells,[3]; anti-CD3 stimulation alone,increased proliferation of CD8^+CD28^+ T-cells in a dose-dependent fashion
same,proliferation of CD8^+CD28^− T-cells compared to DMSO,[3]; anti-CD3 stimulation,displayed no response to LEN
same,CD28 re-expression,CD28 [4]; after anti-CD3 plus anti-CD28 stimulation,re-expression was slightly increased
same,ligand-induced CD28 internalization,CD28 [4]; anti-CD3 plus anti-CD28 stimulation,does not impair ligand-induced internalization
same,CD28 surface expression (MFI) compared to DMSO,CD28 [5],amplifies this anti-CD3 response
same,IL-2 production with increasing concentrations of LEN,purified human T-cells [6]; fixed 5 μg/ml anti-CD3 alone,dose-dependency of IL-2 production
same,increase in IL-2 production,"purified human T-cells [6]; human T-cells, anti-CD3 plus anti-CD28 co-stimulation, average, p<0.001",6 fold
same,production of IL-2 compared to DMSO,"purified human T-cells [6]; human T-cells, increasing anti-CD3, no anti-CD28, 10 μM LEN",increased the production of IL-2
same,hematologic response (IWG) in relation to pre-treatment CD28^+ T-cells,MDS patients,correlation between accumulation of CD28^− T-cells and resistance to LEN
same,proliferating cells (% BrdU positive) compared to DMSO,purified human T-cells [7],stimulated more cells to proliferate in a dose dependent fashion
same,elaboration of IL-2 in CD8^+CD28^− T-cells,CD8^+CD28^− T-cells,completely abolished in CD8^+CD28^− T-cells with no response to LEN
same,CD28 mRNA,CD28 [8],did not significantly increase
same,IL-2 production in TCR-stimulated murine T-cells,murine T-cells; anti-CD3 alone,failed to induce IL-2 production
same,anti-CD28 signaling response (IL-2) in murine T-cells,murine T-cells; anti-CD3 plus anti-CD28,failed to intensify the anti-CD28 signaling response
same,IL-2 mRNA compared to DMSO,IL-2 gene,dose-dependent increase in IL-2 mRNA
same,stability of stock solutions on storage,[9],variable loss in activity
same,binding of pCREB to the IL-2 promoter compared to DMSO,[10],increases binding of pCREB to the IL-2 promoter
